Assay results from PubChem BioAssay AID330 (DTP/NCI, 2004).
Where “and” joins values, the source holds several entries; their conditions need not be identical. Equal values may be shown once. Toxic doses and inconclusive results are not listed. The calls were made as follows: active = survival T/C of 150% or more; inactive = T/C below 125% in these data.

System: P388 leukemia ip, CD2F1 mice, survival T/C
Assay: NCI In Vivo Anticancer Drug Screen. Data for tumor model P388 Leukemia (intraperitoneal) in CD2F1 (CDF1) mice
Conditions: endpoint: median survival time, higher = longer survival
Outline: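 Mice carrying the transplanted tumor received test compound or vehicle. Survival was recorded in each group, and the value is the treated-group measurement divided by that of the vehicle-treated control group.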

[1] = dose: 1.56 mg/kg/injection, schedule: Q01DX005 (ip), vehicle: saline with Tween-80
[2] = dose: 3.12 mg/kg/injection, schedule: Q01DX005 (ip), vehicle: saline with Tween-80
[3] = dose: 100.0 mg/kg/injection, schedule: Q01DX009 (ip), vehicle: Klucel (hydroxypropylcellulose) (HPC)
[4] = dose: 60.0 mg/kg/injection, schedule: Q01DX005 (ip), vehicle: Klucel (hydroxypropylcellulose) (HPC)
[5] = dose: 120.0 mg/kg/injection, schedule: Q01DX005 (ip), vehicle: Klucel (hydroxypropylcellulose) (HPC)
[6] = dose: 240.0 mg/kg/injection, schedule: Q01DX005 (ip), vehicle: Klucel (hydroxypropylcellulose) (HPC)
[7] = dose: 50.0 mg/kg/injection, schedule: Q01DX005 (ip), vehicle: saline with Tween-80
[8] = dose: 100.0 mg/kg/injection, schedule: Q01DX005 (ip), vehicle: saline with Tween-80
[9] = dose: 200.0 mg/kg/injection, schedule: Q01DX005 (ip), vehicle: saline with Tween-80
[10] = dose: 60.0 mg/kg/injection, schedule: Q01DX005 (ip), vehicle: saline with Tween-80
[11] = dose: 120.0 mg/kg/injection, schedule: Q01DX005 (ip), vehicle: saline with Tween-80
[12] = dose: 240.0 mg/kg/injection, schedule: Q01DX005 (ip), vehicle: saline with Tween-80

Measured: T/C

Nc1nc(N)c2c(ccc3c2ccn3Cc2cccc([N+](=O)[O-])c2)n1
inactive: [1] 100 % of control and 119 % of control | [2] 110 % of control

Cc1ccc(C)c(NC(=O)Nc2ccc(C(=O)O)c(O)c2)c1
inactive: dose: 50.0 mg/kg/injection, schedule: Q01DX009 (ip), vehicle: Klucel (hydroxypropylcellulose) (HPC) 101 % of control | [3] 101 % of control | dose: 200.0 mg/kg/injection, schedule: Q01DX009 (ip), vehicle: Klucel (hydroxypropylcellulose) (HPC) 114 % of control

Nc1nc(-c2cccc([N+](=O)[O-])c2)cc(-c2cc(-c3cccc([N+](=O)[O-])c3)nc(N)n2)n1
inactive: [4] 94 % of control | [5] 90 % of control | [6] 96 % of control

O=C1Nc2ccc(Br)cc2/C1=c1/sc2nc3ccccc3n2c1=O
inactive: [1] 100 % of control | [2] 98 % of control | dose: 6.25 mg/kg/injection, schedule: Q01DX005 (ip), vehicle: saline with Tween-80 100 % of control | dose: 50.0 mg/kg/injection, schedule: Q01DX005 (ip), vehicle: Klucel (hydroxypropylcellulose) (HPC) 87 % of control | dose: 100.0 mg/kg/injection, schedule: Q01DX005 (ip), vehicle: Klucel (hydroxypropylcellulose) (HPC) 94 % of control

COc1ccc(S(=O)(=O)/C(=C/c2ccccc2[N+](=O)[O-])C(=O)c2ccccc2)cc1
inactive: [7] 111 % of control | [8] 103 % of control | [9] 104 % of control

Cc1ccc(C(C)(N=[N+]=[N-])c2ccccc2)cc1C (stereo not given)
inactive: dose: 25.0 mg/kg/injection, schedule: Q01DX009 (ip), vehicle: saline with Tween-80 91 % of control | dose: 50.0 mg/kg/injection, schedule: Q01DX009 (ip), vehicle: saline with Tween-80 108 % of control | dose: 100.0 mg/kg/injection, schedule: Q01DX009 (ip), vehicle: saline with Tween-80 109 % of control

O=C(/C=C/c1ccco1)c1ccc(Cl)cc1
inactive: dose: 50.0 mg/kg/injection, schedule: Q01DX001 (ip), vehicle: saline sonified 100 % of control | dose: 100.0 mg/kg/injection, schedule: Q01DX001 (ip), vehicle: saline sonified 95 % of control | dose: 200.0 mg/kg/injection, schedule: Q01DX001 (ip), vehicle: saline sonified 100 % of control

O=C1C2C=CC(c3ccccc32)N1/C=C/c1ccccc1 (stereo not given)
inactive: dose: 100.0 mg/kg/injection, schedule: Q04DX003 (ip), vehicle: Klucel (hydroxypropylcellulose) (HPC) 101 % of control | dose: 200.0 mg/kg/injection, schedule: Q04DX003 (ip), vehicle: Klucel (hydroxypropylcellulose) (HPC) 99 % of control | dose: 400.0 mg/kg/injection, schedule: Q04DX003 (ip), vehicle: Klucel (hydroxypropylcellulose) (HPC) 97 % of control

C/C=C(/C)C(=O)OC/C(=C/C)C(=O)OC1C=CC(C)(C)C(C=O)=C1C (stereo not given)
inactive: dose: 12.5 mg/kg/injection, schedule: Q01DX009 (ip), vehicle: Klucel (hydroxypropylcellulose) (HPC) 93 % of control | dose: 25.0 mg/kg/injection, schedule: Q01DX009 (ip), vehicle: Klucel (hydroxypropylcellulose) (HPC) 93 % of control | [3] 93 % of control

CNCC1CCCCC1NC (stereo not given)
inactive: dose: 50.0 mg/kg/injection, schedule: Q04DX003 (ip), vehicle: saline 99 % of control | dose: 100.0 mg/kg/injection, schedule: Q04DX003 (ip), vehicle: saline 97 % of control | dose: 200.0 mg/kg/injection, schedule: Q04DX003 (ip), vehicle: saline 96 % of control

CCOC(=O)Nc1cc2c(c(N)n1)N=C(c1ccc(N)cc1)CN2
inactive: dose: 25.0 mg/kg/injection, schedule: Q01DX001 (ip), vehicle: saline 117 % of control

O=C(O)C(=O)O.[Cu+2].[NH-]C1CCCC2CCC[N-]C12 (stereo not given)
inactive: dose: 7.5 mg/kg/injection, schedule: Q04DX002 (ip), vehicle: suspension in saline 89 % of control | dose: 15.0 mg/kg/injection, schedule: Q04DX002 (ip), vehicle: suspension in saline 92 % of control | dose: 30.0 mg/kg/injection, schedule: Q04DX002 (ip), vehicle: suspension in saline 90 % of control

COC(=O)[C@@]12OC[C@]34[C@H]([C@@H](O)[C@@H]1O)[C@@]1(C)CC(=O)C(O)=C(C)[C@@H]1C[C@H]3OC(=O)[C@H](OC(=O)C(N)Cc1ccccc1)[C@@H]24 (stereo not given in full)
inactive: dose: 0.5 mg/kg/injection, schedule: Q01DX005 (ip), vehicle: Klucel (hydroxypropylcellulose) (HPC) 107 % of control | dose: 1.0 mg/kg/injection, schedule: Q01DX005 (ip), vehicle: Klucel (hydroxypropylcellulose) (HPC) 103 % of control and 107 % of control | dose: 2.0 mg/kg/injection, schedule: Q01DX005 (ip), vehicle: Klucel (hydroxypropylcellulose) (HPC) 108 % of control and 119 % of control | dose: 4.0 mg/kg/injection, schedule: Q01DX005 (ip), vehicle: Klucel (hydroxypropylcellulose) (HPC) 112 % of control | dose: 8.0 mg/kg/injection, schedule: Q01DX005 (ip), vehicle: Klucel (hydroxypropylcellulose) (HPC) 110 % of control | dose: 125.0 micrograms/kg/injection, schedule: Q01DX005 (ip), vehicle: Klucel (hydroxypropylcellulose) (HPC) 96 % of control | dose: 250.0 micrograms/kg/injection, schedule: Q01DX005 (ip), vehicle: Klucel (hydroxypropylcellulose) (HPC) 107 % of control | dose: 500.0 micrograms/kg/injection, schedule: Q01DX005 (ip), vehicle: Klucel (hydroxypropylcellulose) (HPC) 98 % of control | dose: 1000.0 micrograms/kg/injection, schedule: Q01DX005 (ip), vehicle: Klucel (hydroxypropylcellulose) (HPC) 107 % of control

Cc1cc(=O)c2c(=O)n(-c3ccccc3)[nH]c2[nH]1
inactive: [10] 111 % of control | [11] 109 % of control | [12] 100 % of control

c1ncn(Sn2cncn2)n1
inactive: dose: 8.75 mg/kg/injection, schedule: Q01DX005 (ip), vehicle: Klucel (hydroxypropylcellulose) (HPC) 100 % of control | dose: 17.5 mg/kg/injection, schedule: Q01DX005 (ip), vehicle: Klucel (hydroxypropylcellulose) (HPC) 101 % of control | dose: 35.0 mg/kg/injection, schedule: Q01DX005 (ip), vehicle: Klucel (hydroxypropylcellulose) (HPC) 104 % of control

CC(C)(C)OC1COCCO1 (stereo not given)
inactive: [10] 102 % of control | [11] 99 % of control | [12] 93 % of control

Cc1c2ccn(Cc3ccccc3)cc2c(C)c2c1nc1ccccc12
inactive: dose: 19.25 mg/kg/injection, schedule: Q04DX002 (ip), vehicle: saline with Tween-80 121 % of control | dose: 38.5 mg/kg/injection, schedule: Q04DX002 (ip), vehicle: saline with Tween-80 113 % of control

CCCCCCCCCCCCCCCC(=O)N(CCCN)C(C)(C)CCC(C)(C)N(CCCN)C(=O)CCCCCCCCCCCCCCC
inactive: dose: 1.56 mg/kg/injection, schedule: Q01DX009 (ip), vehicle: water 101 % of control | dose: 3.13 mg/kg/injection, schedule: Q01DX009 (ip), vehicle: water 107 % of control | dose: 6.25 mg/kg/injection, schedule: Q01DX009 (ip), vehicle: water 114 % of control | dose: 12.5 mg/kg/injection, schedule: Q01DX009 (ip), vehicle: water 113 % of control | dose: 25.0 mg/kg/injection, schedule: Q01DX009 (ip), vehicle: water 93 % of control

COc1ccc(CCCc2cc3c(cc2OC)OCO3)cc1
inactive: [4] 100 % of control | [5] 100 % of control | [6] 97 % of control

CN(C)c1ccc(/C=C/c2ccnnc2)cc1
inactive: dose: 50.0 mg/kg/injection, schedule: Q01DX009 (ip), vehicle: saline 99 % of control | dose: 100.0 mg/kg/injection, schedule: Q01DX009 (ip), vehicle: saline 104 % of control | dose: 200.0 mg/kg/injection, schedule: Q01DX009 (ip), vehicle: saline 100 % of control

O=C(O)C(O)C(O)C(OC1OC(CO)C(O)C(O)C1O)C(O)CO (stereo not given)
inactive: dose: 50.0 mg/kg/injection, schedule: Q01DX005 (ip), vehicle: saline 105 % of control | dose: 100.0 mg/kg/injection, schedule: Q01DX005 (ip), vehicle: saline 101 % of control | dose: 200.0 mg/kg/injection, schedule: Q01DX005 (ip), vehicle: saline 102 % of control

OCC1CC2C=CC1O2 (stereo not given)
inactive: [7] 101 % of control | [8] 114 % of control | [9] 95 % of control

CC1CC(C)(C)CC2(C1)OCC(CCl)O2 (stereo not given)
inactive: dose: 25.0 mg/kg/injection, schedule: Q01DX001 (ip), vehicle: saline with Tween-80 109 % of control | dose: 50.0 mg/kg/injection, schedule: Q01DX001 (ip), vehicle: saline with Tween-80 104 % of control | dose: 100.0 mg/kg/injection, schedule: Q01DX001 (ip), vehicle: saline with Tween-80 109 % of control
